Values joined by “and” are separate entries in the source; they are usually repeats but may differ in a detail not shown here. Equal values may be shown once.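 Where inhibition never reached the appropriate level, the endpoint shown equals the highest concentration tested. Otherwise, values were interpolated linearly from a five-concentration, 48-hour dose response in 96-well plates. At the GI50, growth is halved. TGI is the concentration that stops growth completely.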
How the values were obtained:
Test in all cases: NCI tumour cell line growth inhibition, 48 h
CCRF-CEM leukemia = tested on: CCRF-CEM leukemia
EKVX NSCLC = tested on: EKVX NSCLC
HL-60(TB) leukemia = tested on: HL-60(TB) leukemia
SF-539 CNS = tested on: SF-539 CNS
TK-10 renal = tested on: TK-10 renal
SK-MEL-2 melanoma = tested on: SK-MEL-2 melanoma
BT-549 breast = tested on: BT-549 breast
MDA-MB-231 breast = tested on: MDA-MB-231 breast
NCI/ADR-RES ovarian = tested on: NCI/ADR-RES ovarian
MDA-MB-435 = tested on: MDA-MB-435

Compound | TGI (CCRF-CEM leukemia) | TGI (EKVX NSCLC) | TGI (HL-60(TB) leukemia) | TGI (SF-539 CNS) | TGI (TK-10 renal) | GI50 (CCRF-CEM leukemia) | GI50 (EKVX NSCLC) | GI50 (HL-60(TB) leukemia) | GI50 (SK-MEL-2 melanoma) | TGI (SK-MEL-2 melanoma) | GI50 (TK-10 renal) | TGI (BT-549 breast) | TGI (MDA-MB-231 breast) | TGI (NCI/ADR-RES ovarian) | GI50 (BT-549 breast) | GI50 (MDA-MB-231 breast) | GI50 (MDA-MB-435) | TGI (MDA-MB-435) | GI50 (SF-539 CNS) | GI50 (NCI/ADR-RES ovarian)
COc1ccccc1C(N)c1ccccc1 (configuration not stated) | > 100 µM | > 100 µM | > 100 µM | > 100 µM | > 100 µM |  |  |  |  |  |  |  |  |  |  |  |  |  |  | 
O=C(O)c1cccc2cccc(C(=O)O)c12.[Hg] | 29.2 µM | > 100 µM | 42.2 µM |  | 34.6 µM | 6.92 µM | > 100 µM | 19.3 µM | 17.4 µM | 31.6 µM | 20.3 µM |  |  |  |  |  |  |  |  | 
NC(=O)Nc1c([N+](=O)[O-])cc(C(F)(F)F)cc1[N+](=O)[O-] | > 100 µM | > 100 µM | > 100 µM | > 100 µM | > 100 µM |  |  |  |  | > 100 µM |  |  |  |  |  |  |  |  |  | 
CCC1CC(C)=CCN1S(=O)(=O)c1ccc(C)cc1 (configuration not stated) | 75.7 µM | > 100 µM | 18 µM | 39.8 µM |  |  |  |  |  | 27.2 µM |  |  |  |  |  |  |  |  |  | 
COc1cc(Nc2nc3cc(C(F)(F)F)ccc3nc2-c2ccccc2)cc(OC)c1OC | > 100 µM | > 100 µM | > 100 µM | > 100 µM | 77 µM |  |  |  |  | > 100 µM |  |  |  |  |  |  |  |  |  | 
COC(=O)C1=C(c2ccc3c(c2)OCO3)OC(c2ccc3c(c2)OCO3)C1 (configuration not stated) | > 100 µM | > 100 µM | > 100 µM | > 100 µM | > 100 µM |  |  |  |  | > 100 µM |  |  |  |  |  |  |  |  |  | 
CCOC(=O)N[C@@H]1C2CC(=O)C(O2)[C@@H]1OC (some centres not stated) | > 100 µM | > 100 µM | > 100 µM | > 100 µM | > 100 µM |  |  |  |  | > 100 µM |  |  |  |  |  |  |  |  |  | 
O=C1c2cc([N+](=O)[O-])cc3cc([N+](=O)[O-])cc(c23)C(=O)N1CCCNCCNCCCN1C(=O)c2cc([N+](=O)[O-])cc3cc([N+](=O)[O-])cc(c23)C1=O | 6.46 µM | 10 µM | 1.13 µM | 1.26 µM | 7.04 µM |  |  |  |  | 0.323 µM |  | 5.51 µM | 3.45 µM | > 100 µM |  |  |  |  |  | 
NCCCNCCSSC/C=C\CSSCCNCCCN | 32.3 µM and 62.5 µM | > 100 µM | 46.4 µM and 39.1 µM | > 100 µM | > 100 µM |  |  |  |  | > 100 µM |  |  |  |  |  |  |  |  |  | 
CCOC(=O)NC(=O)c1cn(CCCOC(=O)NCCCCCCNC(=O)OCCCn2cc(C(=O)NC(=O)OCC)c(=O)[nH]c2=O)c(=O)[nH]c1=O | > 100 µM | > 100 µM | 41.7 µM | 44.5 µM | 68.5 µM |  |  |  |  |  |  |  |  |  |  |  |  |  |  | 
COc1ccc(-c2cc(-c3cc(C)ccc3O)[nH]c(=O)n2)cc1 | > 100 µM | > 100 µM | > 100 µM | > 100 µM | > 100 µM |  |  |  |  |  |  |  |  |  |  |  |  |  |  | 
O=C(NC1CCCCC1)NS(=O)(=O)c1ccc(-n2nc3c(c2-c2ccc(Cl)cc2)Cc2ccccc2-3)cc1 | 4.36 µM | 37.7 µM | 14.6 µM | 27.7 µM | 26.9 µM | 1.13 µM | 14.2 µM | 4.28 µM | 19.4 µM | 44.2 µM | 13.3 µM | 17.3 µM | 23 µM |  | 3.52 µM | 6.43 µM | 8.27 µM | 28.1 µM | 11.2 µM | 
N#Cc1c(N)nc(NCc2ccccc2)c(C#N)c1-c1ccccc1Cl | 45.5 µM | 85.3 µM |  | 40.5 µM | 66 µM | 15.2 µM | 24.4 µM |  | 22.9 µM | 93.5 µM | 22.3 µM | 53.9 µM | 33.8 µM | > 100 µM | 16.7 µM | 5.76 µM | 21.8 µM | > 100 µM | 17.9 µM | 37.1 µM
CC1=NC(C(C)C)C(=O)O1 (configuration not stated) | > 100 µM | > 100 µM | > 100 µM | > 100 µM | > 100 µM |  |  |  |  |  |  |  |  |  |  |  |  |  |  | 
COC1OC(COS(=O)(=O)c2ccc(C)cc2)C(O)C(OS(=O)(=O)c2ccc(C)cc2)C1OS(=O)(=O)c1ccc(C)cc1 (configuration not stated) | > 100 µM | > 100 µM | > 100 µM | > 100 µM |  |  |  |  |  | > 100 µM |  |  |  |  |  |  |  |  |  | 
C/C(=C\CCc1ccsc1)CC/C=C(\C)CCCN1CCC(CO)CC1 | 4.8 µM |  | 3.99 µM | 3.36 µM | 3.29 µM | 2.09 µM |  | 1.94 µM |  |  | 1.76 µM | 3.51 µM | 2.87 µM | 13.3 µM | 1.7 µM | 1.38 µM | 1.87 µM | 3.87 µM | 1.69 µM | 3.33 µM
O=C(CN1C(=O)S/C(=C\C(Cl)=C\c2ccccc2)C1=O)NCCc1ccc(O)cc1 | > 100 µM | 4.74 µM |  | 3.63 µM | 5.02 µM | 2.16 µM | 2.04 µM |  | 2.64 µM | 7.74 µM | 2.42 µM | 4.9 µM | 6.52 µM | 8.81 µM | 2.03 µM | 2.09 µM | 2.09 µM | 5.28 µM | 1.74 µM | 2.44 µM
C=C(C)[C@@H]1CC[C@]2(C(=O)O)CC[C@]3(C)[C@H](CC[C@@H]4[C@@]5(C)C/C(=C/c6ccc(OC)cc6)C(=O)C(C)(C)[C@@H]5CC[C@]43C)[C@@H]12 |  | 10.5 µM |  | 4.16 µM | 20.7 µM |  | 2.36 µM |  | 2.38 µM | 6.29 µM | 2.6 µM | 4.34 µM | 7.78 µM | 13.3 µM | 1.89 µM | 2.32 µM | 1.84 µM | 4.02 µM | 1.94 µM | 2.84 µM
COc1cccc(Cn2c(-c3nonc3NC(C)=O)nc3ccccc32)c1 | > 100 µM |  |  | > 100 µM | 40.8 µM | > 100 µM |  |  | 3.07 µM | 18.9 µM | 2.65 µM | > 100 µM | > 100 µM | > 100 µM | 8.79 µM | 3.62 µM | 0.642 µM | 5.48 µM | 3.65 µM | 3.24 µM
COC(=O)C1=C(CS(=O)c2ccc([N+](=O)[O-])cc2[N+](=O)[O-])ON(C)C1c1ccccc1 (configuration not stated) | 37.9 µM | > 100 µM | 24.2 µM | 56.2 µM | > 74.8 µM |  |  |  |  | > 100 µM |  |  |  |  |  |  |  |  |  | 

Source: PubChem BioAssay (NCI)
